We go through 32 molecules from patent publication US7323469B2, “7H-pyrrolo[2,3-d]pyrimidine derivatives” (Novartis AG, priority 2001, dated 2008).

What is called melting point is the temperature of the solid-liquid transition.

For `Fc1ccc(Nc2ncnc3[nH]c(-c4cccc(CN5CCOCC5)c4)cc23)cc1Cl` [Example 39, (3-Chloro-4-fluoro-phenyl)-[6-(3-morpholin-4-ylmethyl-phenyl)-7H-pyrrolo[2,3-d]pyrimidin-4-yl]-amine], the melting point lay within 290 to 292 °C. Next, `C[C@@H](Nc1ncnc2[nH]c(-c3ccc(CNC(=O)CN4CCCCC4)cc3)cc12)c1ccccc1` [Example 40, N-{4-[4-((R)-1-Phenyl-ethylamino)-7H-pyrrolo[2,3-d]pyrimidin-6-yl]-benzyl}-2-piperidin-1-yl-acetamide]: 194 to 196 °C; `C[C@@H](Nc1ncnc2[nH]c(-c3ccc(CNC(=O)CN4CCCC4)cc3)cc12)c1ccccc1` [Example 41, N-{4-[4-((R)-1-Phenyl-ethylamino)-7H-pyrrolo[2,3-d]pyrimidin-6-yl]-benzyl}-2-pyrrolidin-1-yl-acetamide]: 196 to 198 °C; `C[C@@H](Nc1ncnc2[nH]c(-c3ccc(CNC(=O)CN4CCOCC4)cc3)cc12)c1ccccc1` [Example 42, 2-Morpholin-4-yl-N-{4-[4-((R)-1-phenyl-ethyl-amino)-7H-pyrrolo[2,3-d]pyrimidin-6-yl]-benzyl}-acetamide]: 199 to 202 °C. Next, `C[C@@H](Nc1ncnc2[nH]c(-c3ccc(CNC(=O)CN(C)C)cc3)cc12)c1ccccc1` [Example 44, 2-Dimethylamino-N-{4-[4-((R)-1-phenyl-ethyl-amino)-7H-pyrrolo[2,3-d]pyrimidin-6-yl]-benzyl}-acetamide]: 263 to 266 °C; `CCN1CCN(CC(=O)NCc2ccc(-c3cc4c(N[C@H](C)c5ccccc5)ncnc4[nH]3)cc2)CC1` [Example 45, 2-(4-Ethyl-piperazin-1-yl)-N-{4-[4-((R)-1-phenyl-ethylamino)-7H-pyrrolo[2,3-d]pyrimidin-6-yl]-benzyl}-acetamide]: 121 to 124 °C. Turning to `CN(C)CC(=O)NCc1ccc(-c2cc3c(Nc4ccc(F)c(Cl)c4)ncnc3[nH]2)cc1` [Example 46, N-{4-[4-(3-Chloro-4-fluoro-phenylamino)-7H-pyrrolo[2,3-d]pyrimidin-6-yl]-benzyl}-2-dimethylamino-acetamide], the melting point lay in the range of 278 to 282 °C.

As for `CCN1CCN(CC(=O)NCc2ccc(-c3cc4c(Nc5ccc(F)c(Cl)c5)ncnc4[nH]3)cc2)CC1` [Example 47, N-{4-[4-(3-Chloro-4-fluoro-phenylamino)-7H-pyrrolo[2,3-d]pyrimidin-6-yl]-benzyl}-2-(4-ethyl-piperazin-1-yl)-acetamide], the melting point was in the range of 245 to 247 °C. As for `O=C(CN1CCCCC1)NCc1ccc(-c2cc3c(Nc4ccc(F)c(Cl)c4)ncnc3[nH]2)cc1` [Example 49, N-{4-[4-(3-Chloro-4-fluoro-phenylamino)-7H-pyrrolo[2,3-d]pyrimidin-6-yl]-benzyl}-2-piperidin-1-yl-acetamide], the melting point is 229 to 232 °C. Molecule `CN1CCN(CC(=O)NCc2ccc(-c3cc4c(Nc5ccc(F)c(Cl)c5)ncnc4[nH]3)cc2)CC1` [Example 50, N-{4-[4-(3-Chloro-4-fluoro-phenylamino)-7H-pyrrolo[2,3-d]pyrimidin-6-yl]-benzyl}-2-(4-methyl-piperazin-1-yl)-acetamide] displayed a melting point of 246 to 249 °C. Next, `CN(C)CC(=O)NCc1ccc(-c2cc3c(Nc4ccc(OCc5ccccc5)cc4)ncnc3[nH]2)cc1` [Example 51, N-{4-[4-(4-Benzyloxy-phenylamino)-7H-pyrrolo[2,3-d]pyrimidin-6-yl]-benzyl}-2-dimethylamino-acetamide]: 233 to 235 °C; `O=C(CN1CCCCC1)NCc1ccc(-c2cc3c(Nc4ccc(OCc5ccccc5)cc4)ncnc3[nH]2)cc1` [Example 53, N-{4-[4-(4-Benzyloxy-phenylamino)-7H-pyrrolo[2,3-d]pyrimidin-6-yl]-benzyl}-2-piperidin-1-yl-acetamide]: 246 to 248 °C. `C[C@@H](Nc1ncnc2[nH]c(-c3ccc(CNC(=O)CCN4CCCCC4)cc3)cc12)c1ccccc1` [Example 54, N-{4-[4-((R)-1-Phenyl-ethylamino)-7H-pyrrolo[2,3-d]pyrimidin-6-yl]-benzyl}-3-piperidin-1-yl-propionamide] showed a melting point of 140 °C.

In turn, `CCN(CC)CCC(=O)NCc1ccc(-c2cc3c(N[C@H](C)c4ccccc4)ncnc3[nH]2)cc1` [Example 55, 3-Diethylamino-N-{4-[4-((R)-1-phenyl-ethyl-amino)-7H-pyrrolo[2,3-d]pyrimidin-6-yl]-benzyl}-propionamide] came in with a melting point of 175 to 177 °C. In turn, `C[C@@H](Nc1ncnc2[nH]c(-c3ccc(CNC(=O)CCCN(C)C)cc3)cc12)c1ccccc1` [Example 56, 4-Dimethylamino-N-{4-[4-((R)-1-phenyl-ethyl-amino)-7H-pyrrolo[2,3-d]pyrimidin-6-yl]-benzyl}-butyramide] showed a melting point of 195 to 203 °C. Next, `C[C@@H](Nc1ncnc2[nH]c(-c3ccc(CNC(=O)c4ccccn4)cc3)cc12)c1ccccc1` [Example 57, Pyridine-2-carboxylic acid 4-[4-((R)-1-phenyl-ethylamino)-7H-pyrrolo[2,3-d]pyrimidin-6-yl]-benzylamide]: 221 to 223 °C; `CCN(CC)CCC(=O)NCc1ccc(-c2cc3c(Nc4ccc(F)c(Cl)c4)ncnc3[nH]2)cc1` [Example 58, N-{4-[4-(3-Chloro-4-fluoro-phenylamino)-7H-pyrrolo[2,3-d]pyrimidin-6-yl]-benzyl}-3-diethylamino-propionamide]: 229 to 232 °C; `O=C(NCc1ccc(-c2cc3c(Nc4ccc(F)c(Cl)c4)ncnc3[nH]2)cc1)c1ccccn1` [Example 59, Pyridine-2-carboxylic acid 4-[4-(3-chloro-4-fluoro-phenylamino)-7H-pyrrolo[2,3-d]pyrimidin-6-yl]-benzylamide]: 340 to 342 °C.

`O=C(CCN1CCCCC1)NCc1ccc(-c2cc3c(Nc4ccc(F)c(Cl)c4)ncnc3[nH]2)cc1` [Example 61, N-{4-[4-(3-Chloro-4-fluoro-phenylamino)-7H-pyrrolo[2,3-d]pyrimidin-6-yl]-benzyl}-3-piperidin-1-yl-propionamide] returned a melting point of 230 to 235 °C. Next, `CN(C)CC(=O)NCc1cccc(-c2cc3c(Nc4ccc(F)c(Cl)c4)ncnc3[nH]2)c1` [Example 64, N-{3-[4-(3-Chloro-4-fluoro-phenylamino)-7H-pyrrolo[2,3-d]pyrimidin-6-yl]-benzyl}-2-dimethylamino-acetamide]: 272 to 273 °C; `CN1CCN(CC(=O)NCc2cccc(-c3cc4c(Nc5ccc(F)c(Cl)c5)ncnc4[nH]3)c2)CC1` [Example 65, N-{3-[4-(3-Chloro-4-fluoro-phenylamino)-7H-pyrrolo[2,3-d]pyrimidin-6-yl]-benzyl}-2-(4-methyl-piperazin-1-yl)-acetamide]: 214 °C; `O=C(CN1CCCCC1)NCc1cccc(-c2cc3c(Nc4ccc(F)c(Cl)c4)ncnc3[nH]2)c1` [Example 66, N-{3-[4-(3-Chloro-4-fluoro-phenylamino)-7H-pyrrolo[2,3-d]pyrimidin-6-yl]-benzyl}-2-piperidin-1-yl-acetamide]: 252 to 254 °C. Molecule `Cc1ccc(Nc2ncnc3[nH]c(-c4cccc(CN5CCN(C)CC5)c4)cc23)cc1O` [Example 67, 2-Methyl-5-{6-[3-(4-methyl-piperazin-1-ylmethyl)-phenyl]-7H-pyrrolo[2,3-d]pyrimidin-4-ylamino}-phenol] returned a melting point of 256 to 258 °C. Next, `COc1ccc(Nc2ncnc3[nH]c(-c4cccc(CN5CCN(C)CC5)c4)cc23)cc1O` [Example 69, 2-Methoxy-5-{6-[3-(4-methyl-piperazin-1-ylmethyl)-phenyl]-7H-pyrrolo[2,3-d]pyrimidin-4-ylamino}-phenol]: 251 to 252 °C; `Cc1ccc(Nc2ncnc3[nH]c(-c4ccc(CN5CCN(C)CC5)cc4)cc23)cc1O` [Example 72, 2-Methyl-5-{6-[4-(4-methyl-piperazin-1-ylmethyl)-phenyl]-7H-pyrrolo[2,3-d]pyrimidin-4-ylamino}-phenol]: > 300 °C. The molecule `C[C@@H](Nc1ncnc2[nH]c(-c3ccc(CN(C)C)cc3)cc12)c1ccc(Cl)cc1` [Example 76, [(R)-1-(4-Chloro-phenyl)-ethyl]-[6-(4-dimethylaminomethyl-phenyl)-7H-pyrrolo[2,3-d]pyrimidin-4-yl]-amine] yielded a melting point of 273 to 274 °C. `C[C@@H](Nc1ncnc2[nH]c(-c3ccc(CN4CCN(C)CC4)cc3)cc12)c1ccc(Cl)cc1` [Example 77, [(R)-1-(4-Chloro-phenyl)-ethyl]-{6-[4-(4-methyl-piperazin-1-ylmethyl)-phenyl]-7H-pyrrolo[2,3-d]pyrimidin-4-yl}-amine] registered a melting point of 232 to 233 °C. The result for `C[C@@H](Nc1ncnc2[nH]c(-c3ccc(CN(CCO)CCO)cc3)cc12)c1ccccc1` [Example 82, 2-((2-Hydroxy-ethyl)-{4-[4-((R)-1-phenyl-ethylamino)-7H-pyrrolo[2,3-d]pyrimidin-6-yl]-benzyl}-amino)-ethanol] reads 194 to 197 °C. Consider `CCN1CCN(Cc2ccc(-c3cc4c(NCc5cccc(Cl)c5)ncnc4[nH]3)cc2)CC1` [Example 83, (3-Chloro-benzyl)-{6-[4-(4-ethyl-piperazin-1-ylmethyl)-phenyl]-7H-pyrrolo[2,3-d]pyrimidin-4-yl}-amine], for which the melting point lay within 241 to 243 °C. The result for `Clc1cccc(CNc2ncnc3[nH]c(-c4ccc(CN5CCCCC5)cc4)cc23)c1` [Example 85, (3-Chloro-benzyl)-[6-(4-piperidin-1-ylmethyl-phenyl)-7H-pyrrolo[2,3-d]pyrimidin-4-yl]-amine] reads 234 to 235 °C. On to `CCN(CC)Cc1ccc(-c2cc3c(NCc4cccc(Cl)c4)ncnc3[nH]2)cc1` [Example 87, (3-Chloro-benzyl)-[6-(4-diethylaminomethyl-phenyl)-7H-pyrrolo[2,3-d]pyrimidin-4-yl]-amine], for which the melting point fell in the range of 231 to 233 °C. The molecule `Clc1cccc(CNc2ncnc3[nH]c(-c4ccc(CN5CCCC5)cc4)cc23)c1` [Example 88, (3-Chloro-benzyl)-[6-(4-pyrrolidin-1-ylmethyl-phenyl)-7H-pyrrolo[2,3-d]pyrimidin-4-yl]-amine] returned a melting point of 222 to 225 °C.
